From US20170349546A1, “Light-Activated Two-Component Protein Binding Matrix” (National University of Singapore, priority 2014, published 2017) come the findings set out here.

The nature of this assay: Spiropyran modified beads pull-down of biotinylated peptide, residual HRP-streptavidin measured in solution. In kind it is binding. Particulars: beads incubated with 10 μM peptide, washed twice with PBS, 1 μM HRP-conjugated streptavidin; exposed to light at time=60 minutes. As for the experimental part:
FIG. 3 is a line graph representing binding of peptides to beads selectively modified with a spiropyran molecule. The selectively modified beads were incubated with 10 μM of peptide B7, LAGPQMHGK (SEQ ID NO: 62), for the indicate length of time, and then washed twice with phosphate buffered saline (PBS). The beads were when incubated with 1 μM horseradish (HRP)-conjugated streptavidin, and the residual HRP-streptavidin was measured in solution. FIG. 3 illustrates the % absorbance of the beads after the indicated period of time. The higher the absorbance, the higher the concentration of streptavidin in the bulk solution. […]
Wash 1 mL agarose beads with 2 column volumes DMSO (take from bottle in anhydrous fashion). In different container, mix 2.5 mg spiropyran and 80 mg EDC and 100 mg of NHS. Dissolve these compounds in DMSO; wait for 10 minutes at room temp. Add beads (which are now in DMSO) to this mixture. Make sure good mixing/suspension, i.e. enough DMSO to fully suspend the entire matrix. Agitate for 12 hours. Wash modified matrix with DMSO×20 c.v. to wash out free compounds. Remove DMSO with water was ×20 column volumes. Then store in water or 20% ethanol. See FIG. 7 for examples of bead conjugation techniques.

Where no end group is shown, it is not given here. The star is where a group is joined. Biotin = O=C1N[C@H]2[C@H](CS[C@H]2CCCCC(=O)*)N1

As for “LAGPQMHGK (LAGPQMHGK(Biotin)) [peptide B7, biotinylated peptide aptamer, biotin covalently linked via the amine on the C-terminal lysine residue]”, the “residual HRP-streptavidin in bulk solution (% absorbance) after exposure to light” value is “released back into the bulk solution”.
